Experimental data as given in the METLIN SMRT retention time set (Domingo-Almenara et al. 2019).

Test: gradient 5% acetonitrile 3 min, to 50% in 2 min, to 85% in 15 min, held 3 min, 100 µL/min
Settings: column: Zorbax Extend-C18 2.1 x 50 mm; eluents: water / acetonitrile, 0.1% formic acid
Summary of the method: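 Values are retention times taken from adduct peaks that software picked and an analyst inspected. The pure standards were run as mixtures of ~100 molecules on HPLC linked to a quadrupole time-of-flight mass spectrometer, in positive and negative ionization mode. A Zorbax Extend-C18 column (2.1 × 50 mm, 1.8 μm) was used at 100 μL/min with water and acetonitrile, each including 0.1% formic acid.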

Structure (SMILES)	RP-LC retention time
Cc1ccc(S(=O)(=O)N2CCC3(CC2)NCCN=C3NCc2cc(F)cc(F)c2)cc1C	798 s
CCOc1nc2ccccc2nc1N1CCCC(C(=O)Nc2ccc(OC)cc2OC)C1 (centres undefined)	1180 s
CC1CCN(c2ncc3c(n2)CCC(C(=O)Nc2ccc(N4CCOCC4)cc2)C3)CC1 (centres undefined)	721 s
CS(=O)(=O)N(C1CCOCC1)C1CN(C(=O)NCCc2ccccc2)C1	684 s
CC1=NC(C)(C)CC2CCC(O)C12 (centres undefined)	683 s
Cc1cc(OCCN2CC2)c2ccccc2n1	664 s
CCN(CC)C(=O)C1C(=O)NC2(C)CC1c1ccccc1O2 (centres undefined)	716 s
CCCNC(=O)C1CCCN(c2ccc(SCC(=O)Nc3cccc(SC)c3)nn2)C1 (centres undefined)	693 s
CCN(C(=O)CCc1ccccc1)c1nc(-c2ccccc2)cs1	1320 s
COc1cc(N)c(Cl)cc1C(=O)OCCCN1CCCCC1	655 s
Cc1ccnc(N2CCCC(C(=O)NCC3CCN(Cc4ccccc4C)CC3)C2)n1 (centres undefined)	596 s
CCOC(=O)C1=C(C)NC2=C(C(=O)CC(C)(C)C2)C1c1ccc([N+](=O)[O-])cc1 (centres undefined)	832 s
COc1cccc(NC(=O)c2cc3c(s2)CN(C2CC2)C3)c1	760 s
CCc1ccccc1S(=O)(=O)N1CCC(C(=O)NCc2csc(-c3cccs3)n2)CC1	950 s
Cc1ccc(C2Cn3nnc(-c4nc(C5CCCCC5)no4)c3CO2)c(C)c1 (centres undefined)	1390 s
Cn1cnc(S(=O)(=O)N2CCC(C(=O)NCc3ccccc3Cl)CC2)c1	695 s
COc1ccc2nc(Nc3nc(-c4ccncc4)cs3)sc2c1	584 s
C=CCNC(=O)c1cn(-c2cc(-c3nc(CC)no3)ccn2)cn1	646 s
Cc1cc2[nH]c(C(=O)Nc3ccc(Cl)cc3C)c(CN(C)C)c2s1	704 s
Cc1ccc(C)c(N2CCN(C(=O)c3cn4c(n3)CCCC4)CC2)c1	689 s
O=C(C1=CN(c2cc(F)cc(F)c2)c2ccccc2S1(=O)=O)N1CCCCC1	873 s
O=C(Nc1cnc(N2CCCCCC2)nc1)c1cc(F)cc(F)c1	1020 s
CCC1CN(C(=O)N2CCC(C(=O)NCCCN3CCN(C)CC3)CC2)c2ccccc2O1 (centres undefined)	592 s
COc1cccc(N2C=C(C(=O)N3CCOCC3)S(=O)(=O)c3ccccc32)c1	645 s
CN1c2ccccc2C(=O)NC12CCN(C(=O)NCc1ccc(F)cc1)CC2	724 s
O=C(NC1(c2nc(-c3ccncc3)no2)CCCCC1)c1ccc(C(F)(F)F)cc1	1030 s
COc1ccc(C(=O)N[C@@H]2CCC[C@@H]2C(=O)N(C)C)cn1	595 s

Structure (SMILES)	RP-LC retention time
COCCNC(=O)N1CCCC(C)(C(=O)NCc2ccccc2)C1 (centres undefined)	639 s
COCCN1CCC(CNC(=O)Cc2cccc3ccccc23)CC1	561 s
Nc1c(Cl)ncnc1NCCO	557 s
CCN(Cc1ccccc1)C(=O)c1cn(-c2cc(N3CCC(C)CC3)ncn2)cn1	1120 s
Cc1cnc(C2CCOCC2)n1C1CCCN(Cc2c[nH]c3ccccc23)C1 (centres undefined)	557 s
COc1ccc(C2Cn3cnc(C(=O)N4CCC(C(=O)NCC5CCCO5)CC4)c3CO2)cc1 (centres undefined)	655 s
O=C(Cn1cccc1-c1nnc(C2CC2)o1)N1CCN(c2ccccc2)CC1	821 s
C=Cc1ccc(Cn2cc(S(=O)(=O)N3CCCCC3)ccc2=O)cc1	968 s
O=S(=O)(Cc1ccccc1)N1CCCCC1c1noc(COCC2CC2)n1 (centres undefined)	1050 s
CC(C)CN(C1CCN(C)CC1)C1CN(C(=O)c2cccs2)C1	586 s
COc1ccc(NC2CS(=O)(=O)CC2O)cc1 (centres undefined)	592 s
COc1ccc(NC(=O)NC2CCN(c3ccc(C)c(C)c3)C2=O)cc1F (centres undefined)	800 s
Cc1cccc(-c2noc(-c3cccnc3N3CCN(c4ccc5c(c4)OCO5)CC3)n2)c1	766 s
COc1ccc2c(c1)CCC1C2CC[C@@]2(C)C1CC[C@@H]2NCCCCCCN1C(=O)CCC1=O (some centres undefined)	864 s
Cc1nn(C(C)C(=O)NC(C)C)c(=O)c2nn(-c3ccccc3)c(C)c12 (centres undefined)	739 s
CC(=O)Nc1nsc(N2CCC(C(=O)NCc3cccs3)CC2)n1	610 s
C=CCNC(=O)N1CCCN(C2=NS(=O)(=O)C(c3ccc(C)c(C)c3)=C2C)CC1	770 s
O=C1[C@H]2CN(Cc3ccc(Cl)c(F)c3)C[C@H]2C(=O)N1Cc1ccc2c(c1)OCO2	953 s
CCC(CC)NCCOC(=O)c1ccc([N+](=O)[O-])cc1	705 s
Cc1oc(C(C)C)nc1C(=O)NC(C)c1ccccn1 (centres undefined)	610 s
Cc1ccc(CNC(=O)CCc2c(C)nn(-c3cc(N4CCCCC4)ncn3)c2C)o1	882 s
COCCN1C(=O)c2ccccc2C(C(=O)N2CCN(c3ccccn3)CC2)C1c1cccs1 (centres undefined)	621 s
COc1ccc(NC(=O)N2CCC(C)(C(=O)NCc3ccc4c(c3)OCO4)CC2)c(OC)c1	720 s
CCOc1cccc2sc(N(CCCN(C)C)C(=O)CN3C(=O)CCC3=O)nc12	559 s
Cc1nc(-c2cccs2)c(CCC(=O)Nc2nccs2)s1	752 s
COc1ccc(OC)c(NC(=O)Cn2cnc3cc4c(cc32)OCCO4)c1	641 s
CC(C)c1nc(-c2ccc(OC3CCNC3)cc2)no1 (centres undefined)	631 s

Other lines, results leading:

RP-LC retention time	Structure (SMILES)
822 s	O=C(CSc1ccc(S(=O)(=O)c2ccccc2)nn1)Nc1ccc2c(c1)OCO2
894 s	CC(=O)c1ccc(NC(=O)Cn2nc3c4cc(-c5ccc(Cl)cc5)nn4ccn3c2=O)cc1
754 s	COc1ccc(CNC(=O)C2CCN(c3nccn4nc(-c5cccs5)cc34)CC2)cc1
1300 s	CCc1noc(NC(C)=O)c1-c1ccc(OC)c(S(=O)(=O)Nc2ccc(C)c(Cl)c2)c1
648 s	O=C(Nc1ccc2c(c1)OCCO2)N1CCC(n2c(-c3ccoc3)nc3cccnc32)C1 (centres undefined)
879 s	CCc1noc(NC(C)=O)c1-c1ccc(OC)c(S(=O)(=O)N2CCCc3ccccc32)c1
701 s	CCCNC(=O)C1CCCN(c2ccc(SCC(=O)Nc3ccc(C(=O)OCC)cc3)nn2)C1 (centres undefined)
792 s	CN(C)C(=O)c1ccc2c(c1)N(CC(=O)NCc1ccc(Cl)cc1)C(=O)C1CCCCN21 (centres undefined)
739 s	CCN1C(=O)CCc2cc(NC(=O)c3cncc(Br)c3)ccc21
1030 s	CCNS(=O)(=O)c1cccnc1Nc1ccc(Cl)cc1
626 s	Cc1nc2ccn(Cc3cccnc3)c(=O)c2cc1C(=O)NCCc1c[nH]c2ccccc12
630 s	COc1cccc(CNC(=O)Cn2nc3c4cccc(C)c4ncn3c2=O)c1OC
1000 s	O=C1C2C=CC=CC2=NC(=S)N1CCN1CCC(=C(c2ccc(F)cc2)c2ccc(F)cc2)CC1 (centres undefined)
791 s	Cc1ccc(F)cc1-n1cc(C(=O)O)c2ccccc2c1=O
989 s	CCc1ccc(N2CC(c3nc(-c4ccc(OC)c(OC)c4)no3)CC2=O)cc1 (centres undefined)
1230 s	CCOc1cccc(-c2noc(Cn3cnc4c(cnn4-c4cc(Cl)ccc4C)c3=O)n2)c1
1120 s	O=C(c1ccco1)N1CC(Oc2cccc(-c3nc(-c4ccccc4)no3)c2)C1
1280 s	Cc1ccc(-c2noc(Cn3ncn4nc(-c5ccc(Br)cc5)cc4c3=O)n2)cc1

RP-LC retention time	Structure (SMILES)
814 s	COCCN1C(=O)c2ccccc2C(C(=O)Nc2ccc3[nH]ccc3c2)C12CCCC2 (centres undefined)
971 s	COc1ccc(-c2noc(CN3C(=O)COc4cc(Cl)ccc43)n2)cc1OC
727 s	CCc1csc(-c2cn(CC(=O)Nc3ccc(OC)c(Cl)c3)cn2)n1
1000 s	COCCCNc1onc(-c2ccc(Cl)cc2)c1C(=O)OC
996 s	CCOc1ccc(N2C(=O)C3N=NN(Cc4nc(-c5ccccc5Cl)no4)C3C2=O)cc1 (centres undefined)
1020 s	COc1ccccc1Cc1nc(C2CC(=O)N(c3ccc(F)c(Cl)c3)C2)no1 (centres undefined)
1150 s	CSc1ccc(CNC(=O)C2CCCN(c3nc4c(s3)c(C)nn4-c3ccccc3)C2)cc1 (centres undefined)
885 s	O=C(Nc1ccc(OCc2nnc(-c3ccccc3)o2)cc1)C1CCCC1
785 s	CCc1ccc(N2CCn3c2nc2c3c(=O)n(CC(=O)O)c(=O)n2C)cc1
1090 s	Cc1cccc(-c2noc(-c3nn(CC(=O)NC(C)C)c4ccccc34)n2)c1
676 s	COC(=O)CNC(=O)c1cc2c(=O)n(C)c3ccccc3n2n1
984 s	COc1ccc(C(=O)N2C[C@H](c3nc(-c4ccccc4)no3)[C@@H](C)C2)cc1
1020 s	COc1ccc(-c2nc(-c3ccc4c(c3)oc(=O)n4C)no2)cc1
773 s	N#Cc1ccc(C(=O)NCC(=O)N2CCCc3ccccc32)cc1
970 s	Cc1ccc(-c2nnc(-c3nn(C)c4c3CN(S(=O)(=O)c3ccc(F)c(Cl)c3)CC4)o2)cc1
798 s	O=C(c1ccc2[nH]ccc2c1)N1CCN(c2cc(-c3ccc(Cl)cc3)[nH]n2)CC1
830 s	COC(=O)c1ccc(NC(=O)N2CCC(n3cnc4ccc(Cl)cc4c3=O)CC2)cc1
